Data reported in ChEMBL document CHEMBL5126578, “Organocatalyzed umpolung addition for synthesis of heterocyclic-fused arylidene-imidazolones as anticancer agents” (Bioorg Med Chem, 2022).
Activity calls are given as the source filed them. No cut-off for these calls is given here.

Columns and labels:
[1] = tested on: MCF7; assay: Antiproliferative activity against human MCF7 cells assessed as reduction in cell viability incubated for 48 hrs by MTT assay; format: functional, cell-based; details: MCF7, 48 h
[2] = tested on: HeLa; assay: Antiproliferative activity against human HeLa cells for 24 hrs by MTT assay; format: functional, cell-based
[3] = biological target: Epidermal growth factor receptor (Homo sapiens, UniProt P00533); assay: Inhibition of EGFR (unknown origin) assessed as kinase activity by measuring ATP remaining for 40 mins in presence of ATP by Kinase-Glo Plus luminescence kinase assay
Epidermal growth factor receptor, sequence (P00533 whole entry): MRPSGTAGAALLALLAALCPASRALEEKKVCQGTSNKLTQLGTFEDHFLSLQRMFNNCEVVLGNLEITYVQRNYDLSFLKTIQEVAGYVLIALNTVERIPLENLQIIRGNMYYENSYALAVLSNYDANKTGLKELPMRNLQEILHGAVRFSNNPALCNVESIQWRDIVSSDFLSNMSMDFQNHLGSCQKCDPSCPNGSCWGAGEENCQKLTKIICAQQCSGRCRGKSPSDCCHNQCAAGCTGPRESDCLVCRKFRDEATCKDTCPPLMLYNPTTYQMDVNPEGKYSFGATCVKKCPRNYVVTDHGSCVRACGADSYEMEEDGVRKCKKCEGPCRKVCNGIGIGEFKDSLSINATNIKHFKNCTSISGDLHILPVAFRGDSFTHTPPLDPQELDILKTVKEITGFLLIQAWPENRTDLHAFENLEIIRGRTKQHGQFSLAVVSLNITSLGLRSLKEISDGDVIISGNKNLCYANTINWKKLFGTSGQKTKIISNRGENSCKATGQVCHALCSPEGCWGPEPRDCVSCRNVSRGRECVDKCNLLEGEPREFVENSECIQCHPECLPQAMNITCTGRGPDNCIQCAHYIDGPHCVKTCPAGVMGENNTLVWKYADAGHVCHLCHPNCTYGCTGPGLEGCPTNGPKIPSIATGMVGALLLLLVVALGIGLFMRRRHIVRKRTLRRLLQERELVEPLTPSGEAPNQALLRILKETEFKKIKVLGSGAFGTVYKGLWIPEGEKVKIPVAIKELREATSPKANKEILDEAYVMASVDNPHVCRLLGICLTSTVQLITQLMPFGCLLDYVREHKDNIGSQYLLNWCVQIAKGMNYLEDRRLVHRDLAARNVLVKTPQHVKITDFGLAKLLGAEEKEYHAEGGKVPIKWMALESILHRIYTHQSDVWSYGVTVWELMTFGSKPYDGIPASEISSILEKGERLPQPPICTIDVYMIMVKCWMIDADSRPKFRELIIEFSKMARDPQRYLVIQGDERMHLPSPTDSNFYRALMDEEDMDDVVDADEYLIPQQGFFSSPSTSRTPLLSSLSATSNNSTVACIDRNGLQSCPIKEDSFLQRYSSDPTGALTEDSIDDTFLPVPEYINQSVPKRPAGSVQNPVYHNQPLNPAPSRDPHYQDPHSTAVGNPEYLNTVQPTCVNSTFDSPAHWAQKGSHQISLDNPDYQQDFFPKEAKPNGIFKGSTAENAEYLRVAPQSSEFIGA

[4] = tested on: MCF7; assay: Induction of cell cycle arrest in human MCF7 cells assessed as accumulation at G2/M phase at 4.2 uM for 48 hrs by PI staining based flow cytometry (Rvb= 21.4%); format: functional
[5] = tested on: MCF7; assay: Induction of cell cycle arrest in human MCF7 cells assessed as accumulation at Sub-G1 phase at 4.2 uM for 48 hrs by PI staining based flow cytometry (Rvb= 0.9%); format: functional
[6] = Antiproliferative activity against human H357 cells assessed as reduction in cell viability for 48 hrs by MTT assay; format: functional, cell-based; details: H357, 48 h
[7] = tested on: MCF7; assay: Induction of apoptosis in human MCF7 cells assessed as upregulation of Caspase-3 expression level at 4.2 to 5.5 uM by TRIT-C staining based fluorescence microscopy; format: functional, cell-based; details: dose 4.2-5.5 µM
[8] = tested on: MCF7; assay: Induction of apoptosis in human MCF7 cells assessed as fold change as increase in Bax protein expression level at 5.5 uM by Western blot analysis; format: functional
[9] = tested on: MCF7; assay: Induction of apoptosis in human MCF7 cells assessed as fold change as decrease in BCL-XL protein expression level at 5.5 uM by Western blot analysis; format: functional
[10] = Cytotoxicity against human MCF-10A cells assessed as reduction in cell viability for 48 hrs by MTT assay; format: toxicity, cell-based
[11] = tested on: MCF7; assay: Inhibition of human DNA topoisomerase activity in human MCF cells nuclear lysate assessed mediated supercoiled plasmid DNA relaxation by analyzing migration of supercoiled DNA at 0.9 uM by agarose gel electrophoresis; format: subcellular
[12] = tested on: MCF7; assay: Induction of cell cycle arrest in human MCF7 cells assessed as accumulation at S phase at 4.2 uM for 48 hrs by PI staining based flow cytometry(Rvb= 4.6%); format: functional
[13] = tested on: MDA-MB-231; assay: Antiproliferative activity against human MDA-MB-231 cells assessed as reduction in cell viability for 48 hrs by MTT assay; format: functional, cell-based; details: MDA-MB-231, 48 h
[14] = tested on: MCF7; assay: Induction of apoptosis in human MCF7 cells assessed as fold change as decrease in BCL-XL protein expression level at 4.2 uM by Western blot analysis; format: functional
[15] = tested on: MCF7; assay: Induction of cell cycle arrest in human MCF7 cells assessed as accumulation at G1 phase at 4.2 uM for 48 hrs by PI staining based flow cytometry (Rvb= 73.1%); format: functional
[16] = tested on: MCF7; assay: Induction of apoptosis in human MCF7 cells assessed as fold change as increase in Bax protein expression level at 4.2 uM by Western blot analysis; format: functional
[17] = tested on: MCF7; assay: Induction of apoptosis in human MCF7 cells assessed as increase in number of apoptotic nuclei at 4.2 to 5.5 uM for 48 hrs by DAPI staining based fluorescence microscopy; format: functional, cell-based; details: dose 4.2-5.5 µM
[18] = tested on: HEK-293T; assay: Antiproliferative activity against human HEK293T cells assessed as reduction in cell viability for 48 hrs by MTT assay; format: functional, cell-based
[19] = Antiproliferative activity against VEGF-stimulated human Endothelial cells pre-incubated for 2 hrs followed by stimulation with human VEGF, bFGF and FBS for 18 hrs and measured after 28 hrs by AlamarBlue assay; format: functional, cell-based; details: Endothelial cell
[20] = tested on: MCF7; assay: Induction of apoptosis in human MCF7 cells assessed as fold change as increase in Bax protein expression level at 5 uM by Western blot analysis; format: functional
[21] = tested on: MCF7; assay: Induction of apoptosis in human MCF7 cells assessed as fold change as increase in Bax protein expression level at 3.8 uM by Western blot analysis; format: functional
[22] = tested on: MCF7; assay: Inhibition of human DNA topoisomerase activity in human MCF cells nuclear lysate assessed mediated supercoiled plasmid DNA relaxation by analyzing migration of supercoiled DNA at 1 uM by agarose gel electrophoresis; format: subcellular
[23] = tested on: MCF7; assay: Induction of apoptosis in human MCF7 cells assessed as fold change as decrease in BCL-XL protein expression level at 5 uM by Western blot analysis; format: functional
[24] = tested on: MCF7; assay: Induction of apoptosis in human MCF7 cells assessed as fold change as decrease in BCL-XL protein expression level at 3.8 uM by Western blot analysis; format: functional
[25] = tested on: MCF7; assay: Induction of cell cycle arrest in human MCF7 cells assessed as accumulation at Sub-G1 phase at 3.8 uM for 48 hrs by PI staining based flow cytometry (Rvb= 0.9%); format: functional
[26] = tested on: MCF7; assay: Induction of apoptosis in human MCF7 cells assessed as increase in number of apoptotic nuclei at 3.8 to 5 uM for 48 hrs by DAPI staining based fluorescence microscopy; format: functional, cell-based; details: dose 3.8-5 µM
[27] = tested on: MCF7; assay: Induction of apoptosis in human MCF7 cells assessed as upregulation of Caspase-3 expression level at 3.8 to 5 uM by TRIT-C staining based fluorescence microscopy; format: functional, cell-based; details: dose 3.8-5 µM
[28] = tested on: MCF7; assay: Induction of cell cycle arrest in human MCF7 cells assessed as accumulation at G2/M phase at 3.8 uM for 48 hrs by PI staining based flow cytometry (Rvb= 21.4%); format: functional
[29] = tested on: MCF7; assay: Induction of cell cycle arrest in human MCF7 cells assessed as accumulation at S phase at 3.8 uM for 48 hrs by PI staining based flow cytometry (Rvb=4.6%); format: functional
[30] = tested on: MCF7; assay: Induction of cell cycle arrest in human MCF7 cells assessed as accumulation at G1 phase at 3.8 uM for 48 hrs by PI staining based flow cytometry (Rvb= 73.1%); format: functional
[31] = tested on: MDA-MB-231; assay: Antiproliferative activity against human MDA-MB-231 cells for 48 hrs by MTT assay; format: functional, cell-based; details: MDA-MB-231, 48 h
[32] = tested on: MCF7; assay: Inhibition of human DNA topoisomerase activity in human MCF cells nuclear lysate assessed mediated supercoiled plasmid DNA relaxation by analyzing migration of supercoiled DNA at 0.5 uM by agarose gel electrophoresis; format: subcellular

## COc1ccc(/C=C2\N=C3C(O)=CC=CN3C2=O)cc1
[1]
  IC50: 10 µM

## COC1=CC2=N/C(=C\c3ccccc3)C(=O)N2C=C1
[1]
  IC50: 9.9 µM

## O=C(Cc1csc2nc3ccccc3n12)Nc1cccc2ccccc12
[2]
  IC50: 0.42 µM
[3]
  IC50: 55 µM

## O=C1/C(=C/c2ccc(Cl)cc2)N=C2C(O)=CC=CN12
[1]
  IC50: 5.2 µM

## O=C1/C(=C/c2ccc(Cl)cc2)N=C2Sc3cccc(O)c3N12
[4]
  Activity: 9.6%
[5]
  Activity: 4.3%
[6]
  IC50: 5 µM
[7]
  Activity: Active
[8]
  fold change (FC): 6
[9]
  fold change (FC): 10
[10]
  IC50 at 48 h: 40 µM
[11]
  inhibition: Active
[12]
  Activity: 24.8%
[13]
  IC50: 5.4 µM
[14]
  fold change (FC): 2.5
[15]
  Activity: 61.3%
[1]
  IC50: 4.2 µM
[16]
  fold change (FC): 3.5
[17]
  Activity: Active
[18]
  IC50: 5.8 µM

## O=C1/C(=C/c2ccccc2)N=C2N=CC=CN12
[1]
  IC50: 9.9 µM

## COc1cccc2c1N1C(=O)/C(=C/c3ccccc3)N=C1S2
[1]
  IC50: 4.5 µM

## CCOC(=O)Oc1c(OC)cc(/C=C2\N=C3C=C(OC)C=CN3C2=O)cc1OC
[1]
  IC50: 8.9 µM

## Cc1cccc2c1N1C(=O)/C(=C/c3ccccc3)N=C1S2
[1]
  IC50: 9.8 µM

## COc1ccc(/C=C2\N=C3Sc4cccc(O)c4N3C2=O)cc1
[1]
  IC50: 7.5 µM

## O=C1/C(=C/c2ccccc2)N=C2Sc3ccccc3N12
[1]
  IC50: 9.4 µM

## COC1=CC2=N/C(=C\c3ccc(OC)cc3)C(=O)N2C=C1
[1]
  IC50: 9.8 µM

## COc1ccc(/C=C2\N=C3Sc4cccc(OC)c4N3C2=O)cc1
[1]
  IC50: 7.8 µM

## O=C(Cc1csc2nc3ccccc3n12)Nc1cccc(O)c1
[2]
  IC50: 0.42 µM
[3]
  IC50: 55 µM

## COC1=CC2=N/C(=C\c3cc(OC)c(OC)c(OC)c3)C(=O)N2C=C1
[1]
  IC50: 10 µM

## O=C1/C(=C/c2ccccc2)N=C2C=C(O)C=CN12
[1]
  IC50: 9.2 µM

## O=C1/C(=C/c2ccccc2)N=C2C(O)=CC=CN12
[1]
  IC50: 9.7 µM

## O=C1/C(=C/c2ccccc2)N=C2C=CC=CN12
[1]
  IC50: 9.8 µM

## O=C1/C(=C/c2ccccc2)N=C2C(Br)=CC(Br)=CN12
[1]
  IC50: 10 µM

## CCN(CC)CCOc1cccc(-c2cn3c(n2)sc2ccccc23)c1
[19]
  IC50: 0.0039 µM

## CC1=CC=CN2C(=O)/C(=C/c3ccccc3)N=C12
[1]
  IC50: 9.8 µM

## O=C1/C(=C/c2ccccc2)N=C2Sc3cc(Br)ccc3N12
[1]
  IC50: 9.7 µM

## COC1=CC(OC)=NC2=N/C(=C\c3ccccc3)C(=O)N12
[1]
  IC50: 9.7 µM

## COc1ccc2c(c1)SC1=N/C(=C\c3ccccc3)C(=O)N12
[1]
  IC50: 10 µM

## O=C1/C(=C/c2ccccc2)N=C2Sc3cccc(O)c3N12
[6]
  IC50: 4.8 µM
[20]
  fold change (FC): 5
[21]
  fold change (FC): 2
[22]
  inhibition: Active
[23]
  fold change (FC): 10
[10]
  IC50 at 48 h: 35 µM
[13]
  IC50: 4 µM
[24]
  fold change (FC): 2
[25]
  Activity: 8.9%
[26]
  Activity: Active
[27]
  Activity: Active
[28]
  Activity: 17.2%
[1]
  IC50: 3.8 µM
[29]
  Activity: 36.4%
[30]
  Activity: 37.5%
[18]
  IC50: 4.2 µM

## O=C1/C(=C/c2ccccc2)N=C2C=CC([N+](=O)[O-])=CN12
[1]
  IC50: 9 µM

## COc1ccc2c(c1)sc1nc(/C=C/C(=O)c3ccc(OC)c(O)c3)cn12
[31]
  IC50: 1.2 µM

## CC1=CN2C(=O)/C(=C/c3ccccc3)N=C2C=C1
[1]
  IC50: 10 µM

## COc1cc([C@@H]2c3cc4c(cc3[C@@H](O[C@@H]3O[C@@H]5CO[C@@H](C)O[C@H]5[C@H](O)[C@H]3O)[C@H]3COC(=O)[C@H]23)OCO4)cc(OC)c1O [ETOPOSIDE]
[6]
  IC50: 32 µM
[10]
  IC50 at 48 h: 102 µM
[32]
  inhibition: Active
[18]
  IC50: 28 µM

## O=C1/C(=C/c2ccccc2)N=C2C([N+](=O)[O-])=CC(Br)=CN12
[1]
  IC50: 10 µM
